The text below walks through data of ChEMBL document CHEMBL5257032, “Therapeutic potential of coumarins as antiviral agents” (Eur J Med Chem, 2016).

SMILES strings stand for the structures. Converted amounts (≈) assume the structure as drawn.

The test system of series [1] is Hepatitis C virus. Description: Antiviral activity against HCV assessed as inhibition of RNA replication. Format: functional, organism-based, Hepacivirus hominis.
The test system of series [2] is Hepatitis C virus. The experiment in a line: Antiviral activity against HCV assessed as inhibition of HCV RNA replication at 5.0 uM relative to control. The format is functional, Hepacivirus hominis. Also on record: scale not given: the % may be the effect or the level left.
Series [3] in a line: Cytotoxicity against African green monkey Vero cells. The settings on record: chlorocebus sabaeus, read-out: CD50 (the source's name). Format: toxicity, cell-based.
The subject of series [4] is Human alphaherpesvirus 1. The experiment in a line: Antiviral activity against Herpes simplex virus 1. The format is functional, organism-based.
The test system of series [5] is Human alphaherpesvirus 1. Description: Antiviral activity against Herpes simplex virus 1 assessed as reduction in number of plaques at 0.12 mg/ml relative to control. Format: functional. Also on record: scale not given: the % may be the effect or the level left.
In another series the test system is Human alphaherpesvirus 2. Description: Antiviral activity against Herpes simplex virus 2. Format: functional, organism-based.
The test system of series [6] is Chikungunya virus. The experiment in a line: Antiviral activity against CHIKV. Format: functional, organism-based.
Series [7] can be described thus: Inhibition of HIV1 integrase. Also on record: species or system Human immunodeficiency virus 1.
The subject of the next series is Herpesviridae sp. Description: Antiviral activity against Kaposi's sarcoma-associated herpesvirus. Format: functional, organism-based.
For series [8], the system named is Hepatitis C virus. The experiment in a line: Antiviral activity against HCV subtype 1b in Huh-5-2 cells. The format is functional, organism-based, Hepacivirus hominis.
Series [9] is described as follows: Selectivity index, ratio of CC50 for cytotoxicity against human Ava5 cells to EC50 for antiviral activity against HCV. The format is toxicity, cell-based. The settings on record: read-out: Ratio CC50/EC50.
In another series the test system is Hepatitis B virus. The experiment in a line: Antiviral activity against HBV. Format: functional, organism-based.
Series [10] deals with Chikungunya virus. The experiment in a line: Antiviral activity against CHIKV virus by CHIKV-Rluc assay. Format: functional, organism-based.
The next series concerns Semliki Forest virus. Description: Antiviral activity against SFV. The format is functional, organism-based.
The subject of series [11] is Human alphaherpesvirus 1. Description: Antiviral activity against Herpes simplex virus 1 assessed as inhibition rate at 5 ug/ml relative to control. The format is functional.
For series [12], the system named is Human alphaherpesvirus 1. The experiment in a line: Antiviral activity against Herpes simplex virus 1 assessed as inhibition rate at 2.5 ug/ml relative to control. The format is functional.
Series [13] relates to Human alphaherpesvirus 1. Description: Antiviral activity against Herpes simplex virus 1 assessed as inhibition rate at 10 ug/ml relative to control. Format: functional.
Series [14] can be described thus: Therapeutic index, ratio of IC50 for cytotoxicity against human H9 cells to EC50 for antiviral activity against HIV infected in H9 cells. Format: toxicity, cell-based. To be noted: read-out: Ratio IC50/EC50.
Series [15] relates to Human immunodeficiency virus. The experiment in a line: Antiviral activity against HIV infected in human H9 cells. Format: functional, organism-based. To be noted: Human immunodeficiency virus 1, H9; read-out: EC50.
In the next series the test system is H9. Description: Cytotoxicity against human H9 cells. Format: functional, cell-based.

As usually defined, the EC50 is the concentration that produces a half-maximal response. Consider `CC(=O)OC[C@H]1O[C@@H](n2c(SCc3cc4cc(Br)ccc4oc3=O)nc3ccccc32)[C@H](OC(C)=O)[C@@H](OC(C)=O)[C@@H]1OC(C)=O`, for which the concentration giving a half-maximal response (EC50) in the series on Hepatitis C virus [1] was found to be 4.1 µM. Moreover, the Activity with Hepatitis C virus [2] is 90%. Regarding `O=C(COc1cc(=O)oc2ccccc12)NN1C(=O)CSC1c1ccc(Cl)cc1` (configuration not stated), the CC50 in series [3] turned out to be 20 µg/mL (≈ 46.4 µM). Besides, the MIC in the series on Human alphaherpesvirus 1 [4] was 120 µg/mL (≈ 279 µM). In the series with Human alphaherpesvirus 1 [5], the Activity worked out at 30%. Take `COC1=CC(=O)c2cc(C)cc(-c3c(OC)cc(OC)c4ccc(=O)oc34)c2C1=O`: the concentration giving a half-maximal response (EC50) in the series with Human alphaherpesvirus 2 and in the series on Human alphaherpesvirus 1 [4] was 10 µg/mL (≈ 24.6 µM) throughout. In general, IC50 refers to the concentration that gives 50% inhibition. The compound `CCN(CC)c1ccc2cc(C(=O)c3ccsc3)c(=O)oc2c1` returned a half-inhibitory concentration (IC50) in the series on Chikungunya virus [6] of 5.1 µM. In the case of `COc1ccc(-c2c3c4cc(OC)c(OS(=O)(=O)O)cc4oc(=O)c3n3ccc4cc(OC)c(OC)cc4c23)cc1O`, in series [7], half-maximal inhibition (IC50) required 16 µM.

In the case of `C=CC(C)(C)c1cc2cc3c(cc2oc1=O)OC(C(C)(C)OC(C)=O)C3` (configuration not stated) [RUTAMARIN], the EC50 with Herpesviridae sp. came to 1.62 µM. With `O=c1oc2ccc(Br)cc2cc1CSc1ncc[nH]1`, the 50% effective concentration (EC50) in the series on Hepatitis C virus [8] was found to be 5.1 µM. In the case of `COc1cc(NCc2cc3ccccc3oc2=O)cc(OC)c1OC`, in [9], the selectivity ratio is 10. As to `COc1c(OC/C=C(\C)CCC=C(C)C)ccc2ccc(=O)oc12` [COLLININ], the IC50 with Hepatitis B virus stood at 17.1 µg/mL (≈ 52.1 µM). For the compound `CCN(CC)c1ccc2cc(-c3nc4ccccc4n3C)c(=O)oc2c1`, the IC50 was 6.4 µM in the series on Chikungunya virus [10] and 0.4 µM with Semliki Forest virus. Broadly, the inhibition is the relative decrease from the control value, in per cent. As to `CC(=O)O[C@@H]1CC[C@]2(C)[C@H](CC[C@](C)(O)[C@@H]2COc2ccc3ccc(=O)oc3c2)C1(C)C`, the inhibition at 5 µg/mL in the series on Human alphaherpesvirus 1 [11] came to 80%. Also, the inhibition at 2.5 µg/mL with Human alphaherpesvirus 1 [12] was 65%. Also, the inhibition at 10 µg/mL in the series on Human alphaherpesvirus 1 [13] came to 98%. Also, in the series on Human alphaherpesvirus 1 [4], it took 38 µg/mL (≈ 85.9 µM) to reach a half-maximal effect (EC50).

Consider `CC(C)=CCOc1c2occc2cc2ccc(=O)oc12` [PENTOSALEN], for which the selectivity ratio in series [14] was more than 1000. Moreover, the EC50 in series [15] is less than 0.1 µg/mL. For the same compound, the IC50 in the series on H9 was more than 100 µg/mL.
